# Measured values: US11065275B2, “Cross-linking agents and associated methods” (University of Utah Research Foundation, priority 2016, dated 2021)
# Where two headings read alike, the source gives them in different places.
# Columns and labels:
# [1] = system: cornea of New Zealand white rabbits; details: 0.0025 mg/ml once or three times per day, 0.025 mg/ml once per day; weekly for 5 weeks; mean K and at 3 mm
# Experimental: Copper sulfate (CuSO4) at 0.0025 mg/ml was administered to New Zealand white rabbits at a dose of once per day and three times per day. Additionally, a high concentration sample of 0.025 mg/ml was administered to New Zealand with rabbits once per day during the treatment period. Three different controls were administered either no drops, BSS, or artificial tears. Each of the 6 groups included 6 test subjects each. Topography images were taken before treatment and weekly for 5 weeks. Diopter measurements were the mean K values and at 3 mm. These values were compared to diopter measurements in laser cross-linked corneas after 1 month and 1 year.
# [2] = system: lysyl oxidase (LOX); details: 0.0016 mg/mL CuSO4 in BSS vs BSS control
# Experimental: As a parallel assay, we added 500 uM aminopropionitrile (BAPN) which can diminish LOX activity completely. The fluorescence of oxidized Amplex red was recorded every 10 minutes using fluorescence plate reader.
# [3] = system: rabbits; details: 0.0025 mg/ml TID or QD
# Experimental: Copper sulfate (CuSO4) solution was prepared at a concentration of 0.0025 mg/ml and administered three times a day (TID) or once a day (QD) to rabbits. An anterior segment evaluation was performed with slit-lamp biomicroscopy and Heidelberg Spectralis anterior segment optical coherence tomography (AS-OCT). Two rabbits (n=4 eyes) were sacrificed at each of day 1, week 1, week 4, and week 6 for copper levels in eye tissues and compared to control (no drops) rabbits. Aqueous humor, vitreous, retina, cornea, lens, and blood samples were analyzed for copper ions using inductively coupled plasma mass spectrometry (ICP-MS).
# Rabbits (n=2) were sacrificed after 42 days by intravenous injection of 0.3 ml/kg euthanasia solution and the eyes were enucleated for histological evaluations and reading for signs of inflammation, tissue damage, scarring and fibrosis. The anterior section of the eyes were fixed in 10% formaldehyde-glutaraldehyde solution, dehydrated in a graded series of alcohol, embedded in paraffin, and sectioned with a microtome. The sections were stained with appropriate staining (hematoxylin and eosin and Masson Trichrome).
# [4] = system: human cadaver corneas and rabbit corneas
# Experimental: Cornea radial strain measurements were performed on human cadaver corneas and on rabbit corneas. Human cadaver corneas (n=2 pairs) were cultured as previously mentioned in Example 1. The treated group was immersed in 0.0016 mg/ml CuSO4 for 2 weeks. The samples also contained a small portion of sclera at both ends. Mineral oil was applied on the surface of the sclera-cornea-sclera strip to minimize tissue dehydration. Rabbit corneas were divided into 4 groups. Two groups were treatment groups receiving either CuSO4 0.0025 mg/ml three times per day or CuSO4 0.0025 mg/ml once per day. Two groups served as control receiving only BSS.
# The sample was coupled between a motor and a transducer that applied a controlled pressure from 5-30 mmHg and measured the resultant radial strain. The sample length between the two gripping jaws was approximately 10 mm. Sample geometric information, including width and thickness, was input into the Rheometrics System Analyzer (RSA) control panel. Sample thickness was measured by an ultrasound pachymeter (DGH 550 Pa-chette2; DGH Technology, Exton, Pa.).
# [5] = system: Human Keratoconus Cornea; details: corneas treated 1 week with 0.0016 mg/ml CuSO4 vs untreated, HPLC
# Experimental: Each Human Keratoconus Cornea was bisected. One half was treated with 0.0016 mg/ml CuSo4 in Optisol solution for 1 week and other half was left untreated. After one week each cornea was kept in negative 80° C. for future analysis.
# The cornea samples were washed with PBS pH 7.4 and powdered in liquid nitrogen and pulverized with a Freezer Mill. Cornea samples were demineralized with 0.5 M EDTA in 0.05 M Tris buffer, pH 7.4, for 48 h at 4° C. The insoluble fraction was washed twice with distilled water by centrifugation at 5000 g at […] for 20 min and lyophilized. The lyophilized sample was hydrolyzed with constantly boiling redistilled 6 N HCl in vacuo for 24 h at 110° C. The hydrolysate was neutralized with 2.5 N NaOH and dissolved in distilled water. Analyses were performed for Lysinonorleucine (LNL) and Histidinohydroxylysinonorleucine (HHL) separately by HPLC.
# Amino acid analysis is an important application area in protein chemistry and food analysis. Many different applications exist in this field. Automated pre-column derivatization followed by reverse phase LC has become a useful procedure for efficient analysis, since it is an easy and simple to use technique. An Agilent 1290 Infinity LC System was used with automated pre-column derivatization for fast and sensitive analysis of Lysinonorleucine (LNL). The column used for this method is Agilent ZORBAX Eclipse Plus RRHD C18 (3.0 mm×50 mm, 1.8 μm) and Mobile phase consisted of Solvent A: 10 mM disodium phosphate+10 mM sodium tetraborate pH 8.2 and Solvent B: ACN/MeOH/H2O (45:45:10)
# To […] of the protein hydrolysate sample (less than 3 mM as the total amino acid concentration), 50 μl of 1.5 mM Ne-methyl-L-lysine hydrochlo ide (Mly) in 0.26 M borate buffer, pH 9.5, and 50 μl of acetone were added in a 1.5-ml reaction vial. Then 25 μl of FMOC-Cl reagent (6 mM FMOC-Cl in acetone) was added and the mixture was allowed to react for 2 min at room temperature. The reaction mixture was extracted twice with […] of pentane to remove excess FMOC-Cl reagent. The aqueous phase was subjected to chromatography.
# Cornea cross-linking is tissue specific. The predominant cross-links generated in the human cornea are lysinonorleucine (LNL). LNL are the building blocks for subsequent multivalent cross-links such as the histidinyl-hydroxylysinonorleucine (HHL). Normal and keratoconic human corneas were treated for 1 week with 0.0016 mg/ml CuSO4. Then, an HPLC analysis was performed to measure levels of LNL (FIGS. 2A-2C) and HHL (FIGS. 3A-3C).
compound,measurement,setting,value
"O=S(=O)([O-])[O-].[Cu+2] [CuSO4, copper (II) sulfate]",decrease in diopter measurements vs control groups,[1],greater decrease
same,lox enzyme activity,[2]; keratoconus corneal fibroblast cells,dramatically increased
same,lox enzyme activity,[2]; normal corneal fibroblast cells,dramatically increased
same,corneal haze,[3],no observed corneal haze
same,effect on electroretinography (ERG) measurements,[3],no effect
same,toxicity in dissected eye tissues,[3]; histology after 6 weeks,no observed toxicity
same,corneal stiffness,[4]; after copper sulfate treatment vs untreated (FIG. 4),marked increase
same,"average peak radial strain induced by ocular pulse, treated vs untreated corneas",[4]; at 20 mmHg,about 1.5 times lower
same,corneal biomechanics,[4]; compared with laser cross-linking (FIG. 5),comparable to that seen with laser cross-linking
same,increase in corneal strength,"[4]; from radial strain at 20 mmHg, treated vs untreated",~50%
same,HHL (histidinyl-hydroxylysinonorleucine) cross-link levels,[5],HHL cross-links are also observed
same,LNL (lysinonorleucine) cross-link levels,[5],LNL cross-links were observed
same,HHL (histidinyl-hydroxylysinonorleucine) cross-link levels,[5]; listed as copper,significant increase
same,LNL (lysinonorleucine) cross-link levels,[5]; listed as copper,significant increase
